Test results reported in patent US20240174637A1, “DEGRADERS OF GRK2 AND USES THEREOF” (Sonata Therapeutics, Inc., priority 2021, published 2024).
Where a name gives a salt, the structure may show the parent alone. Read-outs that look alike come from different tables or passages of the source.

What was measured:
PAXF1657 KO Clone #4 = test: 7-day cellular proliferation assay (CellTiter-Glo), PAXF1657 KO Clone #4; type: cell-based
Method in brief: (§1)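 Seven-day growth in PAXF1657 lines engineered for GRK2 overexpression or knockout, measured by CellTiter-Glo; compounds tested at 30 μM-0.0002 μM final and replenished once at day 3.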

GRK2 [1] = biological target: T1, GRK2 (Homo sapiens, UniProt P25098); test: GRK2 Inhibition Assay (TR-FRET, Example 1); type: biochemical
T1 sequence (P25098 1-689): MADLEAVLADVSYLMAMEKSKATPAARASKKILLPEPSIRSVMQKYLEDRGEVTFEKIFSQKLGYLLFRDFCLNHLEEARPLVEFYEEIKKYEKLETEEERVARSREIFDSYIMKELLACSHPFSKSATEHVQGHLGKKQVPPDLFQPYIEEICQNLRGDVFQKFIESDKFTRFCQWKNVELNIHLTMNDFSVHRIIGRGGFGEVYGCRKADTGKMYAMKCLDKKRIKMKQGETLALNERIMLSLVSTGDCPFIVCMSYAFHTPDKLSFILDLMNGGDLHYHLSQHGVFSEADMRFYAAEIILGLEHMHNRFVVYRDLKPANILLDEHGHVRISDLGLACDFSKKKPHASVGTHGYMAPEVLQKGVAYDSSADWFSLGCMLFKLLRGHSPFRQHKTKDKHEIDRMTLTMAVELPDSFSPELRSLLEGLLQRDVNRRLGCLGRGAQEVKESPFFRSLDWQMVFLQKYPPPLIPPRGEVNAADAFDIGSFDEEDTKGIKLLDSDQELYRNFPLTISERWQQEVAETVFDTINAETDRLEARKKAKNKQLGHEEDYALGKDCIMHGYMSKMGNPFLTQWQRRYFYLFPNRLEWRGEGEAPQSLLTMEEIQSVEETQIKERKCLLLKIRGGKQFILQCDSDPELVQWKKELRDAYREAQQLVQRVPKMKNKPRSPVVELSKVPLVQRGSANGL
Method in brief: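 GRK2 (1 nM) pre-incubated 30 min RT with compounds in HEPES/MgCl2/DTT/Tween-20/EGTA buffer, then reacted 90 min RT with 7 μM ATP and 50 nM ULight-TopoIIα substrate. Stopped with EDTA plus Eu anti-TopoIIα antibody; TR-FRET read after 60 min.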

PAXF1657 EV = test: 7-day cellular proliferation assay (CellTiter-Glo), PAXF1657 EV; type: cell-based
Method in brief: as §1

GRK2 [2] = biological target: T1, GRK2; test: GRK2 Degradation Assay and Western Blot in PAXF1657 cells; type: cell-based; set-up: endogenous in cells; host or cells: PAXF1657; details: for DC50: PAXF1657, 24 h, read-out: Degradation Assay - Full Dose Response: IC50 (uM) [cell line: PAXF1657, time point: 24 h]
Method in brief: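 PAXF1657 cells grown to 70% confluency, then treated with compounds at 0–10 μM for 6 to 24 h at 37 °C. Lysates in PBS with 1% NP40 run on SDS-PAGE. GRK2 protein detected by western blot with β-actin as loading reference, using ECL chemiluminescence.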

[3] = proliferation, read-out: GeoMean IC50 (uM) PAXF1657 KO Clone #4
[4] = Table 4, Example 1 assay, read-out: Enzymatic GRK2 IC50: Av IC50 GRK2
[5] = proliferation, read-out: GeoMean IC50 (UM) PAXF1657 EV
[6] = Conc 0.3 uM, read-out: Degradation Assay - 3 point: Degradation (%)
[7] = Conc 1 uM, read-out: Degradation Assay - 3 point: Degradation (%)
[8] = Conc 3 uM, read-out: Degradation Assay - 3 point: Degradation (%)
[9] = 168 h, 7-day, read-out: 7-day proliferation assay: IC50 GeoMean (uM) [Cell Line: PAXF1657 KO Clone #4]
[10] = TR-FRET, 7 μM ATP, read-out: Enzymatic GRK2 Assay: IC50 (nM) (Example 1)
[11] = 168 h, 7-day, read-out: 7-day proliferation assay: IC50 GeoMean (uM) [Cell Line: PAXF1657 EV]
[12] = 1 uM, PAXF1657 EV, 24 hrs, read-out: % GRK2 degradation at 1 uM in PAXF1657 EV (24 hrs)
[13] = 3 uM, PAXF1657 EV, 24 hrs, read-out: % GRK2 degradation at 3 uM in PAXF1657 EV (24 hrs)

Structure (SMILES) | IC50 (PAXF1657 KO Clone #4; [3]) | IC50 (GRK2 [1]; [4]) | IC50 (PAXF1657 EV; [5]) | inhibition at 0.3 µM (GRK2 [2]; [6]) | inhibition at 1 µM (GRK2 [2]; [7]) | inhibition at 3 µM (GRK2 [2]; [8]) | IC50 (PAXF1657 KO Clone #4; [9]) | IC50 (GRK2 [1]; [10]) | IC50 (PAXF1657 EV; [11]) | inhibition at 1 µM (GRK2 [2]; [12]) | inhibition at 3 µM (GRK2 [2]; [13]) | DC50 (GRK2 [2]) | inhibition at 0.3 µM (GRK2 [2]; 0.3 uM, PAXF1657 EV, 24 hrs, read-out: % GRK2 degradation at 0.3 uM in PAXF1657 EV (24 hrs))
C[C@@H](NC(=O)c1cccc(NCc2nnc(-c3ccncn3)n2C)c1)c1cccc(OCCCCCOCCCOCC(=O)N2CCN(c3ccc4c(c3)CN(C3CCC(=O)NC3=O)C4=O)CC2)c1 (stereo partly drawn) [Compound D181, N-((1R)-1-(3-((5-(3-(2-(4-(2-(2,6-dioxopiperidin-3-yl)-1-oxoisoindolin-5-yl)piperazin-1-yl)-2-oxoethoxy)propoxy)pentyl)oxy)phenyl)ethyl)-3-(((4-methyl-5-(pyrimidin-4-yl)-4H-1,2,4-triazol-3-yl)methyl)amino)benzamide] | > 30 µM | 11.8 nM | 0.58 µM | 55% | 78% | 86% |  |  |  |  |  |  | 
C[C@@H](NC(=O)c1cccc(NCc2nnc(-c3ccncn3)n2C)c1)c1cccc(C(=O)N2CCC(CCN3CCN(c4ccc5c(c4)CN(C4CCC(=O)NC4=O)C5=O)CC3)CC2)c1 (stereo partly drawn) [Compound D120] | > 30 µM | 9.55 nM | 0.04 µM | 90.8% | 94.8% | 89.6% |  |  |  |  |  |  | 
C[C@@H](NC(=O)c1cccc(NCc2nnc(-c3ccncn3)n2C)c1)c1ccc(OCCCCN2CCN(c3ccc4c(c3)CN(C3CCC(=O)NC3=O)C4=O)CC2)cc1 (stereo partly drawn) [Compound D175, N-((1R)-1-(4-(4-(4-(2-(2,6-dioxopiperidin-3-yl)-1-oxoisoindolin-5-yl)piperazin-1-yl)butoxy)phenyl)ethyl)-3-((4-methyl-5-(pyrimidin-4-yl)-4H-1,2,4-triazol-3-yl)methylamino)benzamide hydrochloride] | > 30 µM | 10.3 nM | < 0.000458 µM | 87.7% | 89.2% | 82.8% |  |  |  |  |  |  | 
Cc1ncsc1-c1ccc(CNC(=O)[C@@H]2C[C@@H](O)CN2C(=O)[C@@H](NC(=O)CCCCCOCCOCCOCCCCCCOc2ccc(CNC(=O)c3cccc(NCc4nnc(-c5ccncn5)n4C)c3)cc2)C(C)(C)C)cc1 [Compound D87] |  |  |  |  |  |  | > 10 µM | < 100 nM | 1 to 10 µM | 23% | 18% |  | 
C[C@@H](NC(=O)c1cccc(NCc2nnc(-c3ccncn3)n2C)c1)c1cccc(OCCCCCCOCCOCCOCCCC(=O)N2CCN(c3ccc4c(c3)CN(C3CCC(=O)NC3=O)C4=O)CC2)c1 (stereo partly drawn) [Compound D179, N-((1R)-1-(3-((6-(2-(2-(4-(4-(2-(2,6-dioxopiperidin-3-yl)-1-oxoisoindolin-5-yl)piperazin-1-yl)-4-oxobutoxy)ethoxy)ethoxy)hexyl)oxy)phenyl)ethyl)-3-(((4-methyl-5-(pyrimidin-4-yl)-4H-1,2,4-triazol-3-yl)methyl)amino)benzamide] | > 30 µM | 6.36 nM | 0.14 µM | 58% | 82% | 88% |  |  |  |  |  |  | 
C[C@@H](NC(=O)c1cccc(NCc2nnc(-c3ccncn3)n2C)c1)c1cccc(OCCCCCCOCCOCCOCCC(=O)N2CCN(c3ccc4c(c3)CN(C3CCC(=O)NC3=O)C4=O)CC2)c1 (stereo partly drawn) [Compound D131, N-((1R)-1-(3-(6-(2-(2-(3-(4-(2-(2,6-dioxopiperidin-3-yl)-1-oxoisoindolin-5-yl)piperazin-1-yl)-3-oxopropoxy)ethoxy)ethoxy)hexyloxy)phenyl)ethyl)-3-((4-methyl-5-(pyrimidin-4-yl)-4H-1,2,4-triazol-3-yl)methylamino)benzamide] | > 30 µM | 26.6 nM | 0.22 µM | 17.5% | 68.7% | 89.2% |  |  |  |  |  | 0.24 µM | 
C[C@@H](NC(=O)c1cccc(NCc2nnc(-c3ccncn3)n2C)c1)c1cccc(OCCCCCCOCCOCC(=O)N2CCN(c3cc4c(cc3F)C(=O)N(C3CCC(=O)NC3=O)C4=O)CC2)c1 (stereo partly drawn) [Compound D139, N-((1R)-1-(3-(6-(2-(2-(4-(2-(2,6-dioxopiperidin-3-yl)-6-fluoro-1,3-dioxoisoindolin-5-yl)piperazin-1-yl)-2-oxoethoxy)ethoxy)hexyloxy)phenyl)ethyl)-3-((4-methyl-5-(pyrimidin-4-yl)-4H-1,2,4-triazol-3-yl)methylamino)benzamide] | 26.6 µM | 13.6 nM | 0.2 µM | 86% | 92% | 95% |  |  |  |  |  | 0.23 µM | 
Cn1c(CNc2cccc(C(=O)NCc3cccc(OCCCCCn4cc(CCCC(=O)Nc5cccc6c5CN(C5CCC(=O)NC5=O)C6=O)nn4)c3)c2)nnc1-c1ccncn1 (stereo not drawn) [Compound D59] |  |  |  |  |  |  | > 10 µM | < 100 nM | > 10 µM | 18% | 53% |  | 33%
C[C@@H](NC(=O)c1cccc(NCc2nnc(-c3ccncn3)n2C)c1)c1cccc(OCCCCCCOCCN2CCN(c3ccc4c(c3)CN(C3CCC(=O)NC3=O)C4=O)CC2)c1 (stereo partly drawn) [Compound D126, N-((1R)-1-(3-(6-(2-(4-(2-(2,6-dioxopiperidin-3-yl)-1-oxoisoindolin-5-yl)piperazin-1-yl)ethoxy)hexyloxy)phenyl)ethyl)-3-((4-methyl-5-(pyrimidin-4-yl)-4H-1,2,4-triazol-3-yl)methylamino)benzamide] | > 30 µM | 4.56 nM | 0.13 µM | 93.2% | 94.1% | 88% |  |  |  |  |  | 0.04 µM | 
C[C@@H](NC(=O)c1cccc(NCc2nnc(-c3ccncn3)n2C)c1)c1ccc(OCCCCCCOCCOCCOCCCC(=O)N2CCN(c3cc4c(cc3F)C(=O)N(C3CCC(=O)NC3=O)C4=O)CC2)cc1 (stereo partly drawn) [Compound D125, N-((1R)-1-(4-(6-(2-(2-(4-(4-(2-(2,6-dioxopiperidin-3-yl)-6-fluoro-1,3-dioxoisoindolin-5-yl)piperazin-1-yl)-4-oxobutoxy)ethoxy)ethoxy)hexyloxy)phenyl)ethyl)-3-((4-methyl-5-(pyrimidin-4-yl)-4H-1,2,4-triazol-3-yl)methylamino)benzamide] | 26.6 µM | 1.13 nM | 0.11 µM | 71.9% | 82.5% | 76.4% |  |  |  |  |  |  | 
C[C@@H](NC(=O)c1cccc(NCc2nnc(-c3ccncn3)n2C)c1)c1cccc(OCCCCCCOCCOCCN2CCN(c3cc4c(cc3F)C(=O)N(C3CCC(=O)NC3=O)C4=O)CC2)c1 (stereo partly drawn) [Compound D140, N-((1R)-1-(3-(6-(2-(2-(4-(2-(2,6-dioxopiperidin-3-yl)-6-fluoro-1,3-dioxoisoindolin-5-yl)piperazin-1-yl)ethoxy)ethoxy)hexyloxy)phenyl)ethyl)-3-((4-methyl-5-(pyrimidin-4-yl)-4H-1,2,4-triazol-3-yl)methylamino)benzamide] | 19.9 µM | 20.9 nM | 0.78 µM | 88% | 92% | 93% |  |  |  |  |  | 0.12 µM | 
